# Experimental data as given in EP4782453A1 (Beyang Therapeutics Co., Ltd., priority 2023, dated 2025).
# Biological target: T1, Menin-MLL (Homo sapiens, UniProt O00255)
# T1 construct: His-Menin (M1-L615 end); purchased BIORTUS BP9210
# T1 sequence (O00255 1-615 isoform O00255-1): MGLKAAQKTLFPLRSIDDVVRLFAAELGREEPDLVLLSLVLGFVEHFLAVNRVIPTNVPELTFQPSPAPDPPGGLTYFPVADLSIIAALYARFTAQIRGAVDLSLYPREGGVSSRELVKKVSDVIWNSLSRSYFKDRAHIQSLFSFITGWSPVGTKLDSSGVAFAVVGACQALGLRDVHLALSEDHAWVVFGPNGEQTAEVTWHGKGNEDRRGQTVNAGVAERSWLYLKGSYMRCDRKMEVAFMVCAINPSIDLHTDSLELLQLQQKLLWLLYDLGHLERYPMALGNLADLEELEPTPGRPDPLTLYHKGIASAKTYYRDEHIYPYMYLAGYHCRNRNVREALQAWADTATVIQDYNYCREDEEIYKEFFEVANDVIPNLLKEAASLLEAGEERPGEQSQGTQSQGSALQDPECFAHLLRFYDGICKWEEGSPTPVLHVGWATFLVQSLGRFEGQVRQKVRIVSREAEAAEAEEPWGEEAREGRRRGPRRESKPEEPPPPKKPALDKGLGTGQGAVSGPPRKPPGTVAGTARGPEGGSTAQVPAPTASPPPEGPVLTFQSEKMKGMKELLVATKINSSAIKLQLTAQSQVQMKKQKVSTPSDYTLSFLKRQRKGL
# Assay: Inhibitory activity against Menin-MLL binding (fluorescence polarization)
# Details: Menin-MLL IC50, fluorescence polarization; 150 nM His-Menin, 15 nM FITC-MLL; 25°C for 60 min
# Procedure, shortened: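 Fluorescence polarization competition: compound and 150 nM His-tagged menin (residues M1-L615) sit 15 min at 25 °C in pH 7.5 HEPES buffer with NaCl, DTT and BSA; 15 nM FITC-labelled MLL peptide then binds for 60 min. IC50 fitted sigmoidally from mP values, duplicate wells.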
row,SMILES,IC50 [nM]
1,"Cc1ncc2c(-c3ccc(F)cc3C(=O)N(CC(F)F)C(C)C)cc(N3CCN(C(=O)C4NC5CCC4CC5)CC3)cn12 [Example 94, N-(2,2-difluoroethyl)-5-fluoro-2-(3-methyl-6-{4-[(1R,3S,4S)-2-azabicyclo[2.2.2]octan-3-carbonyl]piperazin-1-yl}imidazo[1,5-a]pyridin-8-yl)-N-(isopropyl)benzamide]",44.5
2,"CCN(C(=O)c1cc(F)ccc1-c1cc(N2CC3(CN(C[C@H]4CC[C@H](NS(=O)(=O)CC)CC4)C3)C2)cn2c(C)ncc12)C(C)C [Example 89, N-ethyl-5-fluoro-2-[3-methyl-6-(6-{[(1r,4r)-4-ethanesulfonamidocyclohexyl]methyl}-2,6-diazaspirocyclo[3.3]heptan-2-yl)imidazo[1,5-a]pyridin-8-yl]-N-(isopropyl)benzamide]",173
3,"CCN(C(=O)c1cc(F)ccc1-c1cc([C@@H]2CCN(C[C@]3(O)CC[C@@H](NS(=O)(=O)CC)CC3)C2)cc2c1cnn2C)C(C)C [Compound 55-2-1, N-ethyl-5-fluoro-2-[1-methyl-6-[(3S)-1-{[(1s,4s)-4-ethanesulfonamido-1-hydroxylcyclohexyl]methyl}pyrrolidin-3-yl]-1H-indazol-4-yl]-N-(isopropyl)benzamide]",343

# Same assay, conditions: fluorescence polarization; 150 nM His-Menin, 15 nM FITC-MLL; 25°C for 60 min; read-out: Menin-MLL IC50
row,IC50 [nM],SMILES
1,2.3,"Cc1ncc2c(-c3ccc(F)cc3C(=O)N(C(C)C)C(C)C)cc(C3CN([C@H](CCCN4CCN(CCO)CC4)C(C)C)C3)cn12 [Example 463, 5-fluoro-2-(6-{1-[(3R)-6-[4-(2-hydroxylethyl)piperazin-1-yl]-2-methylhexan-3-yl]azacyclobutan-3-yl}-3-methyl-imidazo[1,5-a]pyridin-8-yl)-N,N-di(isopropyl)benzamide]"
2,2.4,"CCN(C(=O)c1cc(F)ccc1-c1cc(C2CN([C@H](CCCN3CCN(CCO)CC34COC4)C(C)C)C2)cn2c(C)ncc12)C(C)C [Example 482, N-ethyl-5-fluoro-2-(6-{1-[(3R)-6-[8-(2-hydroxyethyl)-2-oxa-5,8-diazaspiro[3.5]non-5-yl]-2-methylhexan-3-yl]azacyclobutan-3-yl}-3-methylimidazo[1,5-a]pyridin-8-yl)-N-(isopropyl)benzamide]"
3,0.9,CCN(C(=O)c1cc(F)ccc1-c1cc(C2CN([C@H](CCCN(C)CCOC)C(C)C)C2)cn2c(C)ncc12)C(C)C [Example 510]
4,83,"CCN(C(=O)c1cc(F)ccc1-c1cc(C2CN([C@H](CCCN3CCN(C)CC3)C(C)C)C2)cn2c(C)nnc12)C(C)C [Example 360-1, N-ethyl-5-fluoro-2-(3-methyl-6-{1-[(3R)-2-methyl-6-(4-methylpiperazin-1-yl)hexan-3-yl]azacyclobutan-3-yl}-[1,2,4]triazolo[4,3-a]pyridin-8-yl)-N-(isopropyl)benzamide]"
5,3,"CCN(C(=O)c1cc(F)ccc1-c1cc(CC2CN([C@@H](CCCN(C)CCOC)C(C)C)C2)n2c(C)cncc12)C(C)C [Example 296-2, N-ethyl-5-fluoro-2-[6-({1-[(3S)-6-[(2-methoxyethyl)(methyl)amino]-2-methylhexan-3-yl]azacyclobutan-3-yl}methyl)-4-methylpyrrolo[1,2-a]pyrazin-8-yl]-N-(isopropyl)benzamide]"
6,2,CCN(C(=O)c1cc(F)ccc1-c1cc(C2CN([C@@H](C)C3CCN(C(=O)NC)CC3)C2)cn2c(C)nc(F)c12)C(C)C [Example 283-2]
7,21,"CCN(C(=O)c1cc(F)ccc1-c1cc(C2CN(C(CN3CCOCC3)C(C)C)C2)cn2c(C)ncc12)C(C)C (stereo not shown) [Example 439, N-ethyl-5-fluoro-2-(3-methyl-6-{1-[3-methyl-1-(morpholin-4-yl)butan-2-yl]azacyclobutan-3-yl}imidazo[1,5-a]pyridin-8-yl)-N-(isopropyl)benzamide]"
8,131,"CC(=O)N1CCC([C@@H](C)N2CC(c3cc(-c4ccc(F)cc4C(=O)N4CCOC[C@H]4C)c4c(F)nc(C)n4c3)C2)CC1 [Example 257-1, 1-{4-[(1R)-1-[3-(1-fluoro-8-{4-fluoro-2-[(3R)-3-methylmorpholin-4-carbonyl]phenyl}-3-methylimidazo[1,5-a]pyridin-6-yl)azacyclobutan-1-yl]ethyl]piperidin-1-yl}ethan-1-one]"
9,17,CC(=O)N1CC2CCC(C1)N2CCC[C@H](C(C)C)N1CC(c2cc(-c3ccc(F)cc3C(=O)N3CCOC[C@H]3C)c3cnn(C)c3c2)C1 [Example 383]
10,19,"CCC(=O)N1CCC(C(C)N2CC(c3cc(-c4ccc(F)cc4C(=O)N4CCOC[C@H]4C)c4cnc(C)n4c3)C2)CC1 (stereo partly drawn) [Example 319, 1-(4-{1-[3-(8-{4-fluoro-2-[(3R)-3-methylmorpholin-4-carbonyl]phenyl}-3-methylimidazo[1,5-a]pyridin-6-yl)azacyclobutan-1-yl]ethyl}piperidin-1-yl)propan-1-one]"

# Further lines, the compound ahead of its results:
row,SMILES,IC50 [nM]
1,"C=C1C[C@@H]2CC[C@H]1[C@@H](C(=O)N1CCC(c3cc(-c4ccc(F)cc4C(=O)N(CC)C(C)C)c4cncn4c3)C1)N2 (stereo partly drawn) [Example 23, N-ethyl-5-fluoro-2-(6-{1-[(1S,3S,4R)-5-methylene-2-azabicyclo[2.2.2]octan-3-carbonyl]pyrrolidin-3-yl}imidazo[1,5-a]pyridin-8-yl)-N-(isopropyl)benzamide]",102
2,Cc1nc(F)c2c(-c3ccc(F)cc3C(=O)N3CCOC[C@H]3C)cc(C3CN(CC4(O)CCOCC4)C3)cn12 [Example 239],199
3,Cc1nc(F)c2c(-c3ccc(F)cc3C(=O)N3CCOC[C@H]3C)cc(C3CN(CC4CCCOC4)C3)cn12 (stereo partly shown) [Example 235],49.5
4,C=C1CN[C@H](C(=O)N2CCN(c3cc(-c4ccc(F)cc4C(=O)N(CC)C(C)C)c4c(Cl)nc(C)n4c3)CC2)C1 [Example 117],21
5,CCN(C(=O)c1cc(F)ccc1-c1cc(N2CCN(C(=O)C3NCCc4ccccc43)CC2)cn2c(C)nc(Cl)c12)C(C)C (stereo not shown) [Example 122],217
6,CCN(C(=O)c1cc(F)ccc1-c1cc(C2CCN(C[C@H]3CC[C@H](N4CCOC4=O)CC3)C2)cn2cncc12)C(C)C (stereo partly shown) [Example 47],25
7,"CCN(C(=O)c1cc(F)ccc1-c1cc(C2=CCC(NCc3ccc(-c4cc(OC)c(OC)nn4)cc3)CC2)n2ccncc12)C(C)C (stereo not shown) [Example 4, 2-{6-[4-({[4-(5,6-dimethoxypyridazin-3-yl)phenyl]methyl}amino)cyclohexyl-1-ene-1-yl]pyrrolo[1,2-a]pyrazin-8-yl}-N-ethyl-5-fluoro-N-isopropylbenzamide]",17.5
8,"CCN(C(=O)c1cc(F)ccc1-c1cc(C2CCN(CC3CCC(NS(=O)(=O)CC)CC3)C2)cn2c(C)nnc12)C(C)C (stereo not shown) [Example 80, 2-(6-{1-[(4-ethanesulfonamidocyclohexyl)methyl]pyrrolidin-3-yl}-3-methyl-[1,2,4]triazolo[4,3-a]pyridin-8-yl)-N-ethyl-5-fluoro-N-(isopropyl)benzamide]",122
9,"CCN(C(=O)c1cc(F)ccc1-c1cc(C2(F)CN(C(=O)[C@H]3N[C@@H]4CC[C@H]3C4)C2)cn2cncc12)C(C)C [Example 34, 2-(6-{1-[(1R,3S,4S)-2-azabicyclo[2.2.1]heptan-3-carbonyl]-3-fluoroazacyclobutan-3-yl}imidazo[1,5-a]pyridin-8-yl)-N-ethyl-5-fluoro-N-(isopropyl)benzamide]",168

# Test system: MOLM-13 (carrying MLL-AF9)
# Assay: Inhibition of proliferation of human tumor cells (Alamar Blue, 7 days), MOLM-13
# Format: cell-based
# Details: Homo sapiens, 168 h, MOLM-13 cells (carrying MLL-AF9), method calls the value GI50
# Excerpt: Experimental Example 2: Evaluation of Inhibitory Activity of Compounds Against Proliferation of Human Tumor Cells
# • Human acute lymphoblastic leukemia cells MV-4-11, purchased from American Type Culture Collection, Catalog Number: CRL-9591; • Human acute myeloid leukemia cells MOLM-13, purchased from COBIOER BIOSCIENCES CO., LTD, Catalog Number: CBP60678; • Human acute myeloid leukemia cells KG-1a, purchased from American Type Culture Collection, Catalog Number: CCL-246.1; • Inverted Microscope, purchased from Olympus Tokyo; • Countess™ Automated Cell Counter, purchased from Invitrogen, Model: C10281; and • Multilabel Reader, purchased from Bio-Tek, Model: Synergy HT.
# MV-4-11 cells were cultured in an IMDM medium containing 10% fetal bovine serum, KG-a cells were cultured in an IMDM medium containing 20% fetal bovine serum, or MOLM-13 cells were cultured in an RPMI-1640 medium containing 20% fetal bovine serum, each supplemented with 100 U·mL^-1 penicillin and 100 µg·mL^-1 streptomycin. These cells were cultured at 37°C with 5% CO2. The suspensions of individual cell lines were prepared in their respective media and seeded into 96-well plates at a density of 4,000 cells/well for MV-4-11 and MOLM-13 cells, or 3,000 cells/well for KG-1a cells. On the day of the experiment, a compound stock solution was diluted in a 3-fold or 4-fold gradient using DMSO. Each gradient-diluted stock solution was then further diluted 250-fold with a complete medium to prepare a series of working solutions at different concentrations. Subsequently, 100 µL of working solution (containing a 2-fold concentration series of the test compound) was added to each well, with duplicate wells set up for each concentration.
# Seven days after compound addition (on Day 7), an Alamar Blue assay reagent (MCE, HY-111391 / CS-0040317) was added to measure the fluorescence intensity in each well. Wells containing the cells in the growth medium supplemented with 0.1% DMSO (Day 7) served as high-read control wells. The readouts from the wells containing the cells in the growth medium supplemented with 0.1% DMSO on the day of compound addition (Day 0) served as low-reading control well. GraphPad Prism software was used to calculate the concentration required to inhibit 50% of cell proliferation (GI50), which serves as a cell proliferation inhibition activity index.
row,IC50 [nM],SMILES
1,4.3,"Cc1ncc2c(-c3ccc(F)cc3C(=O)N(C(C)C)C(C)C)cc(C3CN([C@H](CCCN4CCN(CCO)CC4)C(C)C)C3)cn12 [Example 463, 5-fluoro-2-(6-{1-[(3R)-6-[4-(2-hydroxylethyl)piperazin-1-yl]-2-methylhexan-3-yl]azacyclobutan-3-yl}-3-methyl-imidazo[1,5-a]pyridin-8-yl)-N,N-di(isopropyl)benzamide]"
2,36,"CCN(C(=O)c1cc(F)ccc1-c1cc(C2CN([C@H](CCCN3CCN(CCO)CC34COC4)C(C)C)C2)cn2c(C)ncc12)C(C)C [Example 482, N-ethyl-5-fluoro-2-(6-{1-[(3R)-6-[8-(2-hydroxyethyl)-2-oxa-5,8-diazaspiro[3.5]non-5-yl]-2-methylhexan-3-yl]azacyclobutan-3-yl}-3-methylimidazo[1,5-a]pyridin-8-yl)-N-(isopropyl)benzamide]"
3,9.9,CCN(C(=O)c1cc(F)ccc1-c1cc(C2CN([C@H](CCCN(C)CCOC)C(C)C)C2)cn2c(C)ncc12)C(C)C [Example 510]
